Where two headings read alike, the source gives them in different places.
Tests used:
NET [1] = assay type: binding, rat
muscarinic M1 receptor [2] = molecular target: T1, muscarinic M1 receptor (Rattus norvegicus, UniProt P08482); test: [3H]Pirenzepine Binding Assay, rat brain membranes; settings: for Ki: rat brain membranes, read-out: M1 [3H]pirenzepine Ki ± SEM
T1 construct: Membranes from frozen rat brains excluding cerebellum were thawed; from tissue; host or cells: rat brain (excluding cerebellum) membranes
T1 sequence (P08482 1-460): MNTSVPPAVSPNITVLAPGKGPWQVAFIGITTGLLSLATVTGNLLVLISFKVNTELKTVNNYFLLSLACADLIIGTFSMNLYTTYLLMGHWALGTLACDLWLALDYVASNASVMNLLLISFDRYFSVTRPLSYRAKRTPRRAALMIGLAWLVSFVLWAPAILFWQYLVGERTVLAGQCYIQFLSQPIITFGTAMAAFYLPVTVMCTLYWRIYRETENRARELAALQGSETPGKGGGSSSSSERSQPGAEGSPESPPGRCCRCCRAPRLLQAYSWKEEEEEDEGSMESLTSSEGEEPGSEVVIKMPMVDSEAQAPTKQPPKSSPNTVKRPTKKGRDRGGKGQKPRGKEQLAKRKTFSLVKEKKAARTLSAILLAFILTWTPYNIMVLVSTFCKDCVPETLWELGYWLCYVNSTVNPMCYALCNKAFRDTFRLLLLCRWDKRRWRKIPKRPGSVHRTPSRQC

SERT [3] = molecular target: T2, SERT (Rattus norvegicus, UniProt P31652); test: [3H]Citalopram Binding Assay, rat midbrain membranes; settings: for Ki: rat brain membranes, read-out: SERT [3H]citalopram Ki ± SEM
T2 construct: Membranes from frozen rat midbrain were homogenized; from tissue; host or cells: rat midbrain membranes

DAT [4] = molecular target: T3, DAT (Rattus norvegicus, UniProt P23977); test: biochemical; assay type: binding
T3 construct: their brains removed to an ice-cooled dish for dissection of the caudate putamen; from tissue; host or cells: rat caudate putamen homogenate

NET [5] = molecular target: T4, NET (Rattus norvegicus, UniProt Q63380); assay type: binding; settings: read-out: NET [3H]nisoxetine Ki ± SEM; rat brain membranes; incubation time 1 h
[6] = Model For Reducing Effect of Nicotine (nicotine discrimination); assay type: in vivo, rat; settings: rats; dose 3.0 mg/kg; nicotine only control 50%
Text: Model For Reducing Effect of Nicotine. Food-deprived rats were trained to press one lever for a food pellet after nicotine administration and a second lever after vehicle administration. Pellets of food were delivered intermittently, so that every twentieth response produced food. Using this procedure, the only cue for the rat regarding which lever occasionally pays off with a food pellet, is the subjective effect of the nicotine. When the rats were accurately and reliably identifying the nicotine injections (approximately all of its responses on the lever that occasionally pays off after nicotine or saline), testing began. The rats were pretreated with a compound of Formula III before nicotine injection, and the experiment progressed as described above, except responses on either lever intermittently produced food. A 50% effective nicotine dose was reduced to low levels of effectiveness upon administration of a compound of Formula III.

DAT [7] = molecular target: T3, DAT; settings: comparative data taken from Agoston et al. 1997; read-out: DAT [3H]WIN 35,428 Ki ± SEM; cited from earlier work
NET [8] = molecular target: T4, NET; settings: read-out: NET [3H]nisoxetine Ki ± SEM; comparative data taken from Agoston et al. 1997; cited from earlier work
muscarinic M1 receptor [9] = molecular target: T1, muscarinic M1 receptor; settings: read-out: M1 [3H]pirenzepine Ki ± SEM; cited from earlier work
SERT [10] = molecular target: T2, SERT; settings: read-out: SERT [3H]citalopram Ki ± SEM; cited from earlier work
[11] = ratio of respective Ki values, greater than 1 = DAT selective
[12] = read-out: DAT [3H]WIN 35,428 Ki ± SEM

T2 sequence (P31652 whole entry): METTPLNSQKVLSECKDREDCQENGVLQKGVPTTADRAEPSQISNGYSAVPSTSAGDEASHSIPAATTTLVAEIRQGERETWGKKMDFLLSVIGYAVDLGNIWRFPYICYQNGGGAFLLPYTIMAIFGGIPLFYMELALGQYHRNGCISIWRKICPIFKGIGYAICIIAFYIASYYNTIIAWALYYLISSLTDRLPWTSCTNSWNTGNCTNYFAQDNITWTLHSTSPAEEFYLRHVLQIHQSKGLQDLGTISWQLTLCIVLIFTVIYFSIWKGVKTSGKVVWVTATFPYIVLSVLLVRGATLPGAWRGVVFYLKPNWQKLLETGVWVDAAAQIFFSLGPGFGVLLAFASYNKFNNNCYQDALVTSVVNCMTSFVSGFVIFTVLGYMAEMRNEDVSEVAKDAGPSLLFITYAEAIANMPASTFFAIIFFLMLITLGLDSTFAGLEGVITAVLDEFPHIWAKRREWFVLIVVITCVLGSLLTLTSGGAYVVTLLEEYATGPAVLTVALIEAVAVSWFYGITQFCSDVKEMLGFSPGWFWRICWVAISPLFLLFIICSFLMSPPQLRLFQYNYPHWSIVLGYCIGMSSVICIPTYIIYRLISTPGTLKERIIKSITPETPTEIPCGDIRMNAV
T3 sequence (P23977 whole entry): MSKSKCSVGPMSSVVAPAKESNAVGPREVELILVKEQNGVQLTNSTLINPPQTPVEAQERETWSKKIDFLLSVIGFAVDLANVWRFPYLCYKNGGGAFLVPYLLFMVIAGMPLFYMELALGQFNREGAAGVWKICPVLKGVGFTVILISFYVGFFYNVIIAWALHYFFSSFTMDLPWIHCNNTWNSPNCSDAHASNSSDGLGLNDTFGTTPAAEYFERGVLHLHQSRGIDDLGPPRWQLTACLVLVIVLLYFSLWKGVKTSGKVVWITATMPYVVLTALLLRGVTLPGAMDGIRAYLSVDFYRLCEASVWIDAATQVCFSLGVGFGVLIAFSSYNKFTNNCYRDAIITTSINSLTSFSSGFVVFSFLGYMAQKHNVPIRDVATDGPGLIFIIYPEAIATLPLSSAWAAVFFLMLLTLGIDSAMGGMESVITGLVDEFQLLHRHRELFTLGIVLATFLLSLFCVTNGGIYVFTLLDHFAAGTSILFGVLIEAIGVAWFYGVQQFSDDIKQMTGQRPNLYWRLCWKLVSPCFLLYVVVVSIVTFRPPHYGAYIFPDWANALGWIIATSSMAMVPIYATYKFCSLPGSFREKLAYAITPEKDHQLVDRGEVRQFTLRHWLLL
T4 sequence (Q63380 1-617): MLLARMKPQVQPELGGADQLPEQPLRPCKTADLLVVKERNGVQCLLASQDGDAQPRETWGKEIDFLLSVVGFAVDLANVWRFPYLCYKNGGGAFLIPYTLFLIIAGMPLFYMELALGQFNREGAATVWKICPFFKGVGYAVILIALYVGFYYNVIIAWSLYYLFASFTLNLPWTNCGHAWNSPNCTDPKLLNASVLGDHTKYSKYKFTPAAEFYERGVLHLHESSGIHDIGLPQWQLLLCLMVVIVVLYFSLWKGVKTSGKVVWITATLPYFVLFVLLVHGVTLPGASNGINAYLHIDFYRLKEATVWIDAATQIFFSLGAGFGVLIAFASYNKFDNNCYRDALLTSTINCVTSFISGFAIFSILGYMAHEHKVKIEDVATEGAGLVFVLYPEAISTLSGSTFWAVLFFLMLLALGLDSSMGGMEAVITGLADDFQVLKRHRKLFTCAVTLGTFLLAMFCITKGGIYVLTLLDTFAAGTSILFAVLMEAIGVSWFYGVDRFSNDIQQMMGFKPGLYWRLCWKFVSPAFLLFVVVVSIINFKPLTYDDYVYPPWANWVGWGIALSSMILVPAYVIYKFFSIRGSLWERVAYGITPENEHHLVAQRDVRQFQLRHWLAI

Row | Compound | Binding selectivity DAT/NET (NET [1]; [11]) | Ki (muscarinic M1 receptor [2]) [nM] | Binding selectivity DAT/M1 (muscarinic M1 receptor [2]; [11]) | Ki (SERT [3]) [nM] | Binding selectivity DAT/SERT (SERT [3]; [11]) | Ki (DAT [4]) [nM] | Ki (NET [5]) [nM] | Ki (DAT [4]; [12]) [nM] | Ki (DAT [4]; read-out: DAT binding Ki) [nM] | Binding selectivity DAT/NET (NET [1]) | Binding selectivity DAT/M1 (muscarinic M1 receptor [2]) | Binding selectivity DAT/SERT (SERT [3]) | Effect (of a 50% effective nicotine dose after pretreatment) [6] [%] | Ki (DAT [7]) [nM] | Ki (NET [8]) [nM] | Ki (muscarinic M1 receptor [9]) [nM] | Ki (SERT [10]) [nM]
1 | CN1C2CCC1[C@@H](CO)[C@@H](OC(c1ccc(F)cc1)c1ccc(F)cc1)C2 (stereo partly drawn) [Compound 2, S-(+)-2β-hydroxymethyl-3α-[bis(4-fluorophenyl)methoxy]tropane] | 279 | 109 ± 15.1 | 31 | 910 ± 65 | 258 | 3.52 ± 0.42 |  |  |  |  |  |  |  |  |  |  | 
2 | COC(=O)[C@@H]1C2CCC(C[C@@H]1OC(c1ccc(F)cc1)c1ccc(F)cc1)N2C (stereo partly drawn) [Compound 1a] | 91 | 133 ± 4.16 | 45 | 689 ± 58.4 | 234 |  | 269 | 2.94 |  |  |  |  |  |  |  |  | 
3 | C=CCN1C2CCC1[C@@H](C(=O)OCC)[C@@H](OC(c1ccc(F)cc1)c1ccc(F)cc1)C2 (stereo partly drawn) [Compound 11, S-(+)-N-Allyl-2β-carboethoxy-3α-[bis(4-fluorophenyl)methoxy]tropane] | 85 | 11400 ± 1650 | 1036 | 2280 ± 125 | 207 |  |  | 11 ± 0.94 |  |  |  |  |  |  |  |  | 
4 | COC(=O)C1C(OC(c2ccc(Cl)cc2)c2ccc(Cl)cc2)CC2CCC1N2C (racemic) [(±)-14] |  |  |  |  |  |  |  |  | 23.4 ± 1.5 |  |  |  |  |  |  |  | 
5 | CCOC(=O)[C@@H]1C2CCC(C[C@@H]1OC(c1ccc(F)cc1)c1ccc(F)cc1)N2C (stereo partly drawn) [Compound 1b] | 91 | 1890 ± 132 | 275 | 1850 ± 270 | 269 |  | 629 ± 31 | 6.87 ± 0.33 |  |  |  |  |  |  |  |  | 
6 | CN1C2CCC1[C@@H](COC(=O)CCCc1ccc(N)cc1)[C@@H](OC(c1ccc(F)cc1)c1ccc(F)cc1)C2 (stereo partly drawn) [Compound 8, S-(−)-2β-{[4-(4′-Aminophenyl)butyryl]oxymethyl}-3α-[bis(4-fluorophenyl)methoxy]tropane] |  | 342 ± 33.7 | reduced DAT/M1 selectivity | 1390 ± 145 |  |  |  | 27.6 ± 0.85 |  | 16 | 12 | 50 |  |  |  |  | 
7 | CCCCN1[C@@H]2CC[C@H]1C[C@@H](OC(c1ccc(F)cc1)c1ccc(F)cc1)C2 [Compound 12] | 153 |  | 41 |  | 139 |  |  |  |  |  |  |  | 2.67 | 9.7 ± 0.91 | 1490 ± 190 | 399 ± 26.8 | 1350 ± 151
8 | C=C[C@@H]1C2CCC(C[C@@H]1OC(c1ccc(F)cc1)c1ccc(F)cc1)N2C (stereo partly drawn) [Compound 4, S-(+)-2β-Ethenyl-3α-[bis(4-fluorophenyl)methoxy]tropane] | 261 | 163 ± 23.1 | 90 | 1790 ± 114 | 989 |  |  | 1.81 |  |  |  |  |  |  |  |  | 

From US8383817B2, “Benztropine compounds and uses thereof” (The United States of America, as represented by the …, priority 2005, dated 2013)
